Reference: ChEMBL document CHEMBL1201862, “PubChem BioAssay data set” (2004)
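Cultured in 96-well plates, cells were exposed to test compound for 48 hours across five concentrations. GI50 is the concentration that inhibits growth by half.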 Activity calls are given as the source filed them. Cut-off read from the data, not from the text of the source: active = GI50 up to about 1.1 µM and inactive = higher.

Assays:
Assay in all cases: NCI tumour cell line growth inhibition, 48 h
NCI-H23 = test system: NCI-H23
SF-295 = test system: SF-295
SK-OV-3 = test system: SK-OV-3
HOP-92 = test system: HOP-92
NCI-H522 = test system: NCI-H522
RPMI-8226 = test system: RPMI-8226
786-0 = test system: 786-0
SN12C = test system: SN12C
HOP-62 = test system: HOP-62
DU-145 = test system: DU-145
NCI-H460 = test system: NCI-H460
MDA-N = test system: MDA-N
OVCAR-4 = test system: OVCAR-4
CCRF-CEM = test system: CCRF-CEM
COLO 205 = test system: COLO 205
MOLT-4 = test system: MOLT-4
SW-620 = test system: SW-620
NCI-H226 = test system: NCI-H226
TK-10 = test system: TK-10
ACHN = test system: ACHN

SMILES | GI50 (NCI-H23) | GI50 (SF-295) | GI50 (SK-OV-3) | GI50 (HOP-92) | GI50 (NCI-H522) | GI50 (RPMI-8226) | GI50 (786-0) | GI50 (SN12C) | GI50 (HOP-62) | GI50 (DU-145) | GI50 (NCI-H460) | GI50 (MDA-N) | GI50 (OVCAR-4) | GI50 (CCRF-CEM) | GI50 (COLO 205) | GI50 (MOLT-4) | GI50 (SW-620) | GI50 (NCI-H226) | GI50 (TK-10) | GI50 (ACHN)
COc1ccc(/C=C/C(=O)Oc2ccc(/C=C3\CCCCC3=O)cc2)cc1 | 97.1 µM (inactive) | 18.4 µM (inactive) | > 100 µM (inactive) | > 66.1 µM (inactive) | > 100 µM (inactive) | 3.61 µM (inactive) | > 100 µM (inactive) | 50.9 µM (inactive) | 23.1 µM (inactive) | > 100 µM (inactive) | > 100 µM (inactive) | > 100 µM (inactive) | 43.2 µM (inactive) | 1.93 µM (inactive) | 19.5 µM (inactive) | 2.51 µM (inactive) | > 93.1 µM (inactive) | 25.3 µM (inactive) | > 91.6 µM (inactive) | > 100 µM (inactive)
Cc1cn([C@@H]2O[C@H](CO[Si](C)(C)C(C)(C)C)[C@]3(O[C@H]3C(=O)NN)[C@H]2O[Si](C)(C)C(C)(C)C)c(=O)[nH]c1=O | 14.1 µM (inactive) | 7.69 µM (inactive) | 18.1 µM (inactive) | 6.24 µM (inactive) | 2.2 µM (inactive) | 4.29 µM (inactive) | 4.06 µM (inactive) | 5.79 µM (inactive) | 14.4 µM (inactive) | 6.31 µM (inactive) | 4.31 µM (inactive) | 5.78 µM (inactive) | 6.4 µM (inactive) | 2.42 µM (inactive) | 2.64 µM (inactive) | 2.04 µM (inactive) | 5.73 µM (inactive) | 12 µM (inactive) | 12.7 µM (inactive) | 5.86 µM (inactive)
COc1c(O)c(O)cc2c1-c1ccc(OC)c(=O)cc1C(NC(C)=O)CC2 (stereo not given) | 3.95 µM (inactive) | 5.13 µM (inactive) | 5.35 µM (inactive) | 2.7 µM (inactive) | 1.84 µM (inactive) | 10.9 µM (inactive) | 8.04 µM (inactive) | 8.95 µM (inactive) | 7.6 µM (inactive) | 12.3 µM (inactive) | 6.07 µM (inactive) | 1.69 µM (inactive) | 22.6 µM (inactive) | 3.72 µM (inactive) | 3.13 µM (inactive) | 6.24 µM (inactive) | 4.41 µM (inactive) | 21 µM (inactive) | 65.2 µM (inactive) | 37.5 µM (inactive)
Cc1ccc(/N=N/c2c(C)nn(C(=O)CC(=O)Nc3ccc(Cl)cc3)c2C)cc1C | > 100 µM (inactive) | 48.3 µM (inactive) | 16.9 µM (inactive) | 12.4 µM (inactive) | 32.2 µM (inactive) | > 100 µM (inactive) | 53 µM (inactive) | > 100 µM (inactive) | 34 µM (inactive) | > 100 µM (inactive) | > 100 µM (inactive) | > 100 µM (inactive) | > 100 µM (inactive) | 29.1 µM (inactive) | 90.4 µM (inactive) | 28.7 µM (inactive) | > 100 µM (inactive) | > 100 µM (inactive) | 49.2 µM (inactive) | 5.79 µM (inactive)
CCCc1nc(Cl)nc(Cl)c1Cl | 0.45 µM (active) | 2.33 µM (inactive) | 3.01 µM (inactive) | 0.0104 µM (active) | 0.374 µM (active) | 0.258 µM (active) | 0.127 µM (active) | 0.726 µM (active) | 0.908 µM (active) | 2.41 µM (inactive) | 0.505 µM (active) | 0.0234 µM (active) | 0.0871 µM (active) | < 0.0264 µM (active) | 0.232 µM (active) | 0.065 µM (active) | 0.0675 µM (active) | 2.35 µM (inactive) | 0.762 µM (active) | 0.611 µM (active)
